Consider one substance from patent US20170226518A1, “COMPOSITIONS AND METHODS FOR TREATING CANCER” (Autotelic LLC, priority 2016, published 2017).

The test system of data set [1] is HUP-T3 pancreatic cancer cells. The data set can be described thus: Cellular proliferation of HUP-T3 pancreatic cancer cells in vitro. Format: cell-based. Particulars: 10 μM AP12009 as monotherapy. As for the experimental part: (§1) The aim of the study was to determine the effect of AP12009 (trabedersen) treatment in combination with 5-Fluorouracil (5-FU) on TGFβ2 secretion and on cellular proliferation of HUP-T3 pancreatic cancer cells and WiDr colon cancer cells in vitro.
(§2) 10 μM of AP12009 as monotherapy decreased cell proliferation (53% proliferation of untreated control) and TGFβ2 expression (42% of untreated control) in HUP-T3 cells.

For data set [2], the system named is TGFβ2. The experiment in a line: TGFβ2 secretion/expression in HUP-T3 pancreatic cancer cells. Format: cell-based. Particulars: 10 μM AP12009 as monotherapy. As for the experimental part: as §1, §2
Data set [3] has as its system WiDr colon cancer cells. The experiment in a line: Cellular proliferation of WiDr colon cancer cells in vitro. It is filed as cell-based. Particulars: 10 μM AP12009.
Description: as §1

Data set [4] concerns TGFβ2. The data set can be described thus: TGFβ2 secretion/expression in WiDr colon cancer cells. Format: cell-based. Particulars: 10 μM AP12009.
Description: as §1

Data set [5] has as its system A-172 glioma cells. The experiment in a line: Migration of A-172 glioma cells. Format: cell-based. Particulars: AP12009 10 μM as monotherapy, compared with untreated control. On the procedure: (§3) A-172 glioma cells were treated with a combination of AP12009 (trabedersen) 0 to 10 μM) and different concentrations of TMZ (temozolomide) for 7 days (treatment schedule 2*2/1*3 d).

Data set [6] relates to A-172 glioma cells. The experiment in a line: Proliferation of A-172 glioma cells. It is filed as cell-based. Particulars: 7 days, treatment schedule 2*2/1*3 d. On the procedure:
as §3
(§4) In summary there is no clear beneficial effect in combining AP12009 with TMZ in A-172 cells.

Data set [7] has as its system TGFβ2. The data set can be described thus: TGFβ2 secretion in A-172 glioma cells. Particulars: 7 days, treatment schedule 2*2/1*3 d. Format: cell-based. As for the experimental part:
as §3, §4

Data set [8] in a line: Preclinical toxicology in Cynomolgus monkeys (LOAEL). It is filed as in vivo. As for the experimental part:
(§5) The clinical starting dose for the 7-days-on and 7-days-off schedule was based on the Lowest-Observed-Adverse-Effect-Level (LOAEL) devoid of severe toxicity in Cynomolgus monkeys as the most relevant species. This LOAEL of 4 mg/kg body weight (b.w.)/day is equivalent to approximately 1.3 mg/kg b.w./day or 48 mg/m^2/day on a body surface area basis in human adults. These numbers were rounded down and the safe starting dose was defined at 40 mg/m^2/day, equivalent to approximately 1 mg/kg b.w./day in humans. An alternative approach would have been based on the lowest lethal dose (LLD) of 300 mg/kg b.w. obtained in the acute single dose toxicity study in mice (in rats it was determined at 1000 mg/kg), at which 1 of 10 mice died (LLD10). According to the standard method, 10% of this dose (30 mg/kg) on a body surface area basis would then be defined as the clinical starting dose resulting in 90 mg/m^2/day. In the end, the lower of the two alternatives was chosen as starting dose.

Data set [9] can be described thus: Acute single dose toxicity study in mice. Format: in vivo. Particulars: 1 of 10 mice died (LLD10). On the procedure:
as §5

Data set [10] is described as follows: Acute single dose toxicity in rats. It is filed as in vivo. As for the experimental part:
as §5

Data set [11] has as its system melanoma. The data set can be described thus: Phase I/II study P-001: PFS and OS in melanoma patients. It is filed as in vivo, human. On the procedure: At screening, up to 10 “measurable lesions” (i.e. lesions that could be accurately measured in at least 1 dimension with a longest diameter of 2 cm) representative of all involved organs were identified as “target lesions” for tumor response assessment and were measured and documented. All other lesions were defined and recorded as “non-target lesions”. Tumor response was determined by the local investigator every 8 weeks after start of the first trabedersen cycle during follow-up visits, irrespective of whether the patient was still on treatment or off treatment. The tumor assessment was based on Response Evaluation Criteria in Solid Tumors (RECIST 1.0) criteria. The categories of overall tumor response are as follows: (1) Complete response (CR): disappearance of all target and non-target lesions and normalization of tumor marker level; (2) Partial response (PR): at least 30% decrease in the sum of the longest diameter (LD) of target lesions (baseline sum LD as reference) and/or persistence of one or more non-target lesions and/or maintenance of tumor marker level above normal limits; (3) Stable disease (SD): less than 30% decrease or less than 20% increase in sum LD target lesions (smallest sum LD since treatment start as reference) and/or persistence of one or more non-target lesions and/or maintenance of tumor marker level above normal limits; (4) Progressive disease (PD) At least 20% increase in sum LD target lesions (smallest sum LD since treatment start as reference) and/or unequivocal progression of existing nontarget lesions and/or appearance of one or more new lesions; and (5) Unknown.
Progression-free survival (PFS) was defined as the time from Day 1 until tumor progression or death from any cause. The date of progression was either the date of the image showing progression or the date of treatment termination in case one of the reasons for treatment termination was tumor progression (referring to clinical progression as assessed by the Investigator), whichever occurred first.
Overall survival (OS) was defined as the time from Day 1 until death from any cause. All patients were followed for survival during the follow-up assessments every 8 weeks. […]
The primary objective was to determine the maximum tolerated dose (MTD) and the dose-limiting toxicity (DLTs) of two cycles of trabedersen administered intravenously (i.v.) for 7 days (7 days on and 7 days off) or for 4 days every other week (4 days on and 10 days off). The secondary objectives included assessment of the potential antitumor activity of trabedersen administered i.v. at weekly intervals and for four days every other week, as assessed by survival. […]

In the oligonucleotide strings, read from the 5' end, every base follows the letter of its sugar. An asterisk marks phosphorothioate; unmarked linkages are phosphodiester. Other units and linkages are bracketed, terminal groups are in braces. A string of capitals states the bases alone. d = 2'-deoxy (DNA)

As to “trabedersen: TGFβ2 specific phosphorothioate antisense oligodeoxynucleotide with the sequence 5′-CGGCATGTCTATTTTGTA-3′ (SEQ ID No: 1) (antisense dC*dG*dG*dC*dA*dT*dG*dT*dC*dT*dA*dT*dT*dT*dT*dG*dT*dA)”, in [1], the “cell proliferation (% proliferation of untreated control)” value was found to be 53%. Also, the figures for the “TGFβ2 expression (% of untreated control)” value in [2] and in [4] were 42% and 54%, respectively. Also, the “cell proliferation (% of untreated control)” value in data set [3] is 76%. The “effect on migration of A-172 cells” value in data set [5] is given as “did not affect migration”. The “effect on cell proliferation” value in data set [6] is given as “slightly reduced cell proliferation”. Further, the “effect on TGFβ2 secretion” value in [7] is “strongly reduced TGFβ2”. In [8], the “Lowest-Observed-Adverse-Effect-Level (LOAEL) devoid of severe toxicity” value is recorded as 4 mg/kg body weight (b.w.)/day. The “lowest lethal dose (LLD)” value is 300 mg/kg b.w in data set [9] and 1000 mg/kg in data set [10]. In addition, the “Median progression free survival (PFS)” value in data set [11] (15 patients) came out at 1.77 mos. Moreover, the “median OS” value in [11] (all doses, 19 patients) amounted to 11.4 mos. The OS is listed as 13.70 mos in data set [11] (trabedersen followed by subsequent chemotherapy (N=9)) and 5.5 mos in data set [11] (without subsequent chemotherapy (N=7)).
